Measured values as given in patent US12403091B2, “Delivery system” (SMARTECH TOPICAL, INC., priority 2016, dated 2025).

Conditions: same subject; Celebrex initiated and stopped after 3 days

Structure (SMILES): Cc1ccc(-c2cc(C(F)(F)F)nn2-c2ccc(S(N)(=O)=O)cc2)cc1 [Celebrex, celecoxib]
- Side effects leading to discontinuation: drowsiness and GI side effects
